Results on 21 molecules are retold here after US5731452A, “7-thiaprostaglandins and method of production thereof” (Teijin Limited, priority 1994, dated 1998).

One experiment has as its system human platelet. The experiment is described as follows: Human platelet aggregation inhibiting activity. The format is cell-based. Conditions: 5 min, human plasma, adenosine 2-phosphate induced, 5 minutes at 37° C. Here is the method:
(§1) Wistar rats (males, approximately 400 g) were made to fast for one day, the entire blood was removed from the chest artery under anesthesia by ether, then a 1/10 volume of 3.8% aqueous solution of sodium citrate was added and immediately mixed in. The solution was centrifuged at 1000 rpm for 10 minutes, then the upper layer was used as the platelet rich plasma. The lower layer was centrifuged at 3000 rpm for 10 minutes and the upper layer of that was used as the platelet poor plasma. The platelet rich plasma was diluted by the platelet poor plasma to give a number of platelets of 3.5×10^8 /mm^3. This was used for the measurement. Note that the measurement of the platelets was performed using an automatic blood cell counter MEK-4500 (Nihon Koden). The measurement of the platelet aggregation was performed by measuring the turbidity using an NBS HEMA TRACER 801 (M.C. Medical). 90 μl of the platelet solution was inserted in a cuvette, then 5 μl each of the test compounds was added to give the target final concentration. The result was heated for one minute at 37° C., then 5 μl of a 100 μM aqueous solution of adenosine 2-phosphate (M.C. Medical) was added to induce platelet aggregation. The aggregation inhibiting activity was found from the following formula.
(§2) Aggregation inhibiting rate (%)={1-(maximum change of turbidity at time of
(§3) addition of drug)/(maximum change of turbidity at time of non-addition of
(§4) Further, the concentration of the compound giving 50% inhibition was used as the IC50.
50 ml portions of venous blood supplied from healthy human volunteers were used to prepare the platelet rich plasma and the platelet poor plasma in the same way as above. The measurement of the platelet aggregation was performed in the same way as above. However, unlike with the measurement of the rat platelet aggregation inhibiting activity, the test compound was added to the platelet poor plasma in advance and warmed for 5 minutes at 37° C., then the platelet rich plasma was added to give a number of platelets of 3.5×10^8 /mm^3. At the same time, 5 μl of 100 μM an aqueous solution of adenosine 2-phosphate (M.C. Medical) was added to induce platelet aggregation. The aggregation inhibiting activity was calculated in the same way as mentioned above.

Experiment [1] relates to cell migration induced by MCP-1 in human blood monocytes. The experiment is described as follows: Activity for inhibiting cell migration induced by MCP-1 (human blood monocytes). The format is cell-based. To be noted: Monocyte, 2 h, 20 ng/ml recombinant human MCP-1, 37° C., two hours.
Another experiment relates to rat platelet. The experiment is described as follows: Rat platelet aggregation inhibiting activity. Type of experiment: cell-based. Conditions: rat platelet rich plasma; adenosine 2-phosphate induced; 37° C., one minute. Here is the method: as §1, §2, §3, §4
The next experiment concerns Rat Carotid Artery. The experiment is described as follows: Suppressing thickening of intima after trauma to rat carotid artery endothelium by balloon catheter. The format is in vivo, Wistar rat. Conditions: for thickening of the neointima of the carotid artery (in words) / Suppression rate (intima thickening): 3.2 μg/rat/hr s.c.; for Intima (area) / Media (area) / Intima/Media: 3.2 μg/rat/hr s.c. miniosmotic pump, day 14, average ± standard error; for Intima (area): 3 days before to 11 days after surgery; for Intima (area) / Intima/Media: * p < 0.05 vs control; for Suppression rate (intima thickening): (1-T/C)×100 of Intima/Media. Here is the method: The test was performed in the following manner in accordance with the method of Clowes et al. (Lab. Invest., 49, 206, 1983). Male Wistar rats of a body weight of 300 to 350 g were used. The neck of each rat was opened under anesthesia by sodium pentobarbitol, then a balloon catheter (Fogarty, 2F) was inserted from the right external carotid artery until the starting portion of the common carotid artery. The balloon was expanded by saline to an extent causing a light resistance, then the catheter was pulled out in that state up to the carotid artery to give trauma to the intima. This procedure was repeated three times, then the catheter was withdrawn and the external carotid artery was ligated. After 14 days, the chest was opened under anesthesia by diethyl ether, refluxing and immobilization were performed from the aorti arch by a Karnoa solution (methanol:chloroform:acetic acid=6:3:1), then the right common carotid artery was excised and immobilized by neutral formalin solution. The immobilized carotid artery was dyed by Elastica van Gieson dye, then the areas of the media and thickened portion of the intima were measured by an image resolution device (LUZEX2D).
The test compound began to be administered subcutaneously at a rate of 3.2 μg/rat/hr using a miniosmotic pump buried in the back of the rat from three days before the surgery and was continued until 11 days after the surgery. The activity of the test compound in suppressing intima thickening was found from the following formula.

For a further experiment, the system named is Rabbit Carotid Artery. The experiment is described as follows: Suppressing thickening of intima after trauma to rabbit carotid artery endothelium by balloon catheter. The format is in vivo, New Zealand white rabbit. Here is the method: The test was performed in the following manner in accordance with the method of Clowes et al. (Lab. Invest., 49, 206, 1983). Use was made of New Zealand white rabbits (male) of approximately 4 kg body weight. The neck portion of each rabbit was opened under anesthesia by sodium pentobarbitol, then a balloon catheter (Fogarty, 3F) was inserted from the right external carotid artery until the starting portion of the common carotid artery. The balloon was expanded by saline to an extent causing a light resistance, then the catheter was pulled out in that state up to the carotid artery to give trauma to the intima. This procedure was performed once, then the catheter was withdrawn and the external carotid artery was ligated. After 10 days, the chest was opened under anesthesia by pentobarbitol and the right common carotid artery was removed and immobilized by a neutral formalin solution. The immobilized carotid artery was dyed by Elastica van Gieson dye, then the areas of the media and intima were measured by an image resolution device (LUZEX2D).
The test compound began to be administered subcutaneously at a rate of 32 μg/rabbit/hr using a miniosmotic pump buried in the back of the rabbit from three days before the surgery and was continued until 10 days after the surgery. The activity of the test compound in inhibiting intima thickening was found from the following formula.
Intima thickening suppression rate (%)=(1-T/C)×100

[2] abbreviates: 32 μg/rabbit/hr s.c. miniosmotic pump, day 10, average ± standard error.

The molecule `CCCCC(C)C[C@H](O)/C=C/[C@@H]1C(SCCCCCC(=O)OC)=C(OC(=O)CCC)C[C@H]1O` (stereo partly drawn) [drawing 183] showed an IC50 in the experiment with human platelet of 58 nM.

Take `CCCCC(C)CC(O)/C=C/[C@@H]1C(SCCCCCC(=O)OC)=C(OC(=O)CCC)C[C@H]1O` (stereo partly drawn): in experiment [1], the IC50 stood at 1 nM.

Regarding `CCCC(=O)OC1=C(SCCCCCC(=O)OC)[C@@H](/C=C/[C@@H](O)C2CCCC2)[C@H](O)C1` [drawing 176], in the experiment on rat platelet, the IC50 was 284 nM.

In the experiment with rat platelet, `CCCCC[C@H](O)/C=C/[C@@H]1C(SCCCCCC(=O)O)=C(OC(=O)CCC)C[C@H]1O` [drawing 181] returned an IC50 of 300 nM.

The molecule `CCCCC(C)C[C@H](O)/C=C/[C@@H]1C(SCCCCCC(=O)OC)=C(OC(=O)CCC)C[C@H]1O` (stereo partly drawn) [drawing 170] registered an IC50 in the experiment with rat platelet of 129 nM.

Molecule `CCCC(=O)OC1=C(SCCCCCC(=O)OC)[C@@H](/C=C/C(O)CC(C)C)[C@H](O)C1` (stereo partly drawn) displayed an IC50 in the experiment on rat platelet of 380 nM.

In the case of `CCCC(=O)OC1=C(SCCCCCC(=O)OC)[C@@H](/C=C/[C@@H](O)C2CCCCC2)[C@H](O)C1` [Example 17, methyl(11R,12S,13E,15S)-9-butyryloxy-11,15-dihydroxy-15-cyclohexyl-16,17,18,19,20-pentanor-7-thiaprosta-8,13-dienoate], in the experiment on Rat Carotid Artery, the “thickening of the neointima of the carotid artery (in words)” value was “suppresses the thickening of the neointima of the carotid artery”, the “Intima (area)” value came out at 0.167 mm^2, the “Media (area)” value turned out to be 0.211 mm^2 and the Intima/Media is listed as 0.784. For the same molecule, the “Suppression rate (intima thickening)” value in the experiment on Rat Carotid Artery came out at 37.5%.

Regarding `CCCC(=O)OC1=C(SCCCCCC(=O)OC)[C@@H](/C=C/C(O)Cc2ccccc2)[C@H](O)C1` (stereo partly drawn) [drawing 184], 50 nM corresponded to half-maximal inhibition in the experiment on human platelet (IC50).

Molecule `CCCC(=O)OC1=C(SCCCCCC(=O)OC)[C@@H](/C=C/C(O)CCCc2ccccc2)[C@H](O)C1` (stereo partly drawn) [drawing 180] gave an IC50 in the experiment on rat platelet of 290 nM.

On to `CCCCOC(=O)CCCCCSC1=C(OC(=O)CCC)C[C@@H](O)[C@@H]1/C=C/[C@@H](O)CC(C)CCCC` (stereo partly drawn), for which, in the experiment on rat platelet, the IC50 was determined as 221 nM.

`CCCCC(C)C[C@H](O)/C=C/[C@@H]1C(SCCCOCC(=O)OC)=C(OC(=O)CCC)C[C@H]1O` (stereo partly drawn) [drawing 187] gave an IC50 with human platelet of 59 nM.

As to `CCCC[C@@H](C)C[C@H](O)/C=C/[C@@H]1C(SCCCCCC(=O)OC)=C(OC(=O)CCC)C[C@H]1O` [Example 2, methyl(11R,12S,13E,15S,17R)-9-butyryloxy-11,15-dihydroxy-17,20-dimethyl-7-thiaprosta-8,13-dienoate], in the experiment with Rat Carotid Artery, the “thickening of the neointima of the carotid artery (in words)” value is on record as “suppresses the thickening of the neointima of the carotid artery”, the “Intima (area)” value is reported as 0.155 mm^2, the “Media (area)” value was determined as 0.197 mm^2 and the Intima/Media was 0.758. In addition, the “Suppression rate (intima thickening)” value in the experiment with Rat Carotid Artery came to 45.8%. The “Intima (area)” value in the experiment on Rabbit Carotid Artery (32 μg/rabbit/hr s.c. miniosmotic pump, 3 days before to 10 days after surgery, day 10, average ± standard error) is on record as 0.055 mm^2. In the experiment on Rabbit Carotid Artery (setting [2]), the Intima/Media worked out at 0.152 and the “Media (area)” value is listed as 0.367 mm^2. For the same molecule, the “Suppression rate (intima thickening)” value in the experiment with Rabbit Carotid Artery ((1-T/C)×100 of Intima/Media, 32 μg/rabbit/hr s.c.) came to 29.9%.

In turn, `CCCCC(C)C[C@H](O)/C=C/[C@@H]1C(SCCCCCC(=O)OC)=C(OC(=O)C(C)(C)C)C[C@H]1O` (stereo partly drawn) showed an IC50 in the experiment with rat platelet of 1280 nM.

Consider `CCCC(=O)OC1=C(SCCCCCC(=O)OC)[C@@H](/C=C/C(O)C(C)c2ccccc2)[C@H](O)C1` (stereo partly drawn) [drawing 186], for which the IC50 in the experiment on human platelet turned out to be 105 nM.

In the experiment on rat platelet, `CCCCC(C)C[C@H](O)/C=C/[C@@H]1C(SCCCCCC(=O)OC)=C(OC(=O)C(C)C)C[C@H]1O` (stereo partly drawn) displayed a half-maximal inhibitory concentration (IC50) of 500 nM.

For the molecule `CCCC(=O)OC1=C(SCCCCCC(=O)OC)[C@@H](/C=C/[C@@H](O)C2CCCCC2)[C@H](O)C1` [drawing 182], in the experiment with human platelet, the IC50 is 120 nM.

`CCCCC[C@H](O)/C=C/[C@@H]1C(SCCCCCC(=O)OC)=C(OC(=O)CCC)C[C@H]1O` returned an IC50 with rat platelet of 629 nM.

As to `CCCC(=O)OC1=C(SCCCCCC(=O)OC)[C@@H](/C=C/[C@@H](O)C2CCCCC2)[C@H](O)C1` [drawing 177], the IC50 in the experiment on rat platelet amounted to 73 nM.

Consider `CCCCC(C)C[C@H](O)/C=C/[C@@H]1C(SCCCCCC(=O)OC)=C(OC(=O)c2ccccc2)C[C@H]1O` (stereo partly drawn) [drawing 179], for which the IC50 in the experiment with rat platelet was 700 nM.

In the experiment with rat platelet, `CCCCC(C)C[C@H](O)/C=C/[C@@H]1C(SCCCCCC(=O)OC)=C(OC(C)=O)C[C@H]1O` (stereo partly drawn) yielded an IC50 of 52 nM.

With `CCCC(=O)OC1=C(SCCCCCC(=O)OC)[C@@H](/C=C/C(O)[C@H](C)c2ccccc2)[C@H](O)C1` (stereo partly drawn) [drawing 185], in the experiment on human platelet, the half-inhibitory concentration (IC50) was determined as 49 nM.
